# Reference: patent US20020156094A1, “Sulfonamide interleukin-1beta converting enzyme inhibitors” (Warner-Lambert Company, priority 1996, published 2002)
# “And” between values parts separate entries of the source, which are not always exact repeats. Equal entries are not always repeated.
# How the values were obtained:
# Assay type in all cases: biochemical
# [1] = biological target: T1, ICE (interleukin-1β converting enzyme, Caspase-1) (Homo sapiens, UniProt P29466); experiment: ICE Colorimetric Dose-Response (IC50) Assay; details: ICE approx. 24 nM, 60 min preincubation, 50 μM Ac-Tyr-Val-Ala-Asp-pNA, 25° C.
# T1 sequence (P29466 120-297 limits assumed): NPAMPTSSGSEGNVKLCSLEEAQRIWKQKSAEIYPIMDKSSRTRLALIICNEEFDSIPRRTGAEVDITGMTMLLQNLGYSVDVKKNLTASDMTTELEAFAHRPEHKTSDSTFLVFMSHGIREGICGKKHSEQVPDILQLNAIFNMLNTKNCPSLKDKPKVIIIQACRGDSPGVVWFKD
# T1 sequence (P29466 317-404 limits assumed): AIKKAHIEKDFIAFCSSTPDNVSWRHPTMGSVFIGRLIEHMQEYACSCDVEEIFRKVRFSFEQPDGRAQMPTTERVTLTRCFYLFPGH
# Protocol: ICE Colorimetric Dose-Response (IC50) Assay
# (§1) Diluted inhibitor stocks are prepared by two-fold serial dilution from a primary stock whose concentration is selected (based on screening results or on prior attempts at IC50 evaluation) to achieve approximately 95% inhibition in the most concentrated well. Aliquots of each dilution are transferred to a microtitre plate in triplicate.
# (§2) ICE enzyme is diluted to approximately 24 nM in HGE buffer (100 mM HEPES pH 7.5, 0.5 mM EDTA, 20% glycerol, 0.1% Bovine Serum Albumin (BSA)), and activated by adding dithiothreitol (DTT) to a final concentration of 5 mM. The activated enzyme is then aliquoted into wells containing inhibitor or vehicle, and the plate is preincubated for 60 minutes at ambient temperature. Substrate (Ac-Tyr-Val-Ala-Asp-pNA) is added to each well to a final concentration of 50 μM, and plates are placed in the microtitre plate-reader thermostated to 25° C. Beginning 5 minutes after addition of substrate, absorbance (405 nm) of wells is monitored for 1 hour, and activity is calculated as the mean rate of change in absorbance during this interval.
# [2] = biological target: T1, ICE (interleukin-1β converting enzyme, Caspase-1); experiment: ICE Ki fluorescence assay (Ac-Tyr-Val-Ala-Asp-AMC hydrolysis); details: ICE 0.24 nM, 15 μM Ac-Tyr-Val-Ala-Asp-AMC, reversible competitive model
# Protocol: Substrate hydrolysis is monitored for 300 seconds by observing the fluorescence of released AMC using excitation at 380 nm and emission at 460 nm. Mean rates of substrate hydrolysis are evaluated by linear-regression analysis of the fluorescence vs time traces. To evaluate Ki, plots of percent inhibition vs inhibitor concentration are fit by non-linear regression to a reversible, competitive model: [formula]
# Where the competition factor (1+[S]/KM)=2.
# Ich-2 (Caspase-4) = biological target: T2, Ich-2 (Caspase-4) (Homo sapiens, UniProt P49662); experiment: Ich-2 (Caspase-4) Colorimetric Dose-Response (IC50) Assay; details: enzyme 64 nM, substrate Ac-Leu-Glu-Val-Asp-pNA
# T2 sequence (P49662 81-270 limits assumed): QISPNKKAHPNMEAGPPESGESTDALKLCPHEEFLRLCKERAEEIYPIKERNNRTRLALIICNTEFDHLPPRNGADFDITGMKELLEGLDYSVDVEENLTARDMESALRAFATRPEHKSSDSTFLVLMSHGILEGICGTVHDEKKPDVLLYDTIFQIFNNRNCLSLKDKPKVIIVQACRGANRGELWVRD
# T2 sequence (P49662 290-377 limits assumed): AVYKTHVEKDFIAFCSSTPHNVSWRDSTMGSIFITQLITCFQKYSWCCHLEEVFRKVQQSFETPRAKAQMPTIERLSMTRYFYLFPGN
# Protocol: as §1, §2
# Ich-2 (Caspase-4) Colorimetric Dose-Response (IC50) Assay
# Inhibition of Ich-2 enzyme is assayed as described above for ICE, except that enzyme is used at 64 nM, and 60 µM of the Ich-2-specific substrate Ac-Leu-Glu-Val-Asp-pNA is used instead of the ICE substrate Ac-Tyr-Val-Ala-Asp-pNA.
Compound,IC50 [1],Ki [2],IC50 (Ich-2 (Caspase-4))
"O=C(O)CC(NC(=O)OCc1ccccc1)C(=O)CNS(=O)(=O)CCc1ccccc1 (stereo not shown) [Example 2a, 3-Benzyloxycarbonylamino-4-oxo-5-(2-phenylethane-sulfonylamino)-pentanoic acid]",73 µM,11 µM,–
"O=C(O)CC(NC(=O)OCc1ccccc1)C(=O)CNS(=O)(=O)Cc1ccccc1 (stereo not shown) [Example 2c, 3-Benzyloxycarbonylamino-4-oxo-5-phenylmethanesulfonyl-amino-pentanoic acid]",168 µM,18 µM and 14 µM,–
"O=C(O)CC(NC(=O)OCc1ccccc1)C(=O)CNS(=O)(=O)c1ccccc1 (stereo not shown) [Example 2d, 5-Benzenesulfonylamino-3-benzyloxycarbonylamino-4-oxo-pentanoic acid]",291 µM,37 µM,–
"CS(=O)(=O)NCC(=O)C(CC(=O)O)NC(=O)OCc1ccccc1 (stereo not shown) [Example 2e, 3-Benzyloxycarbonylamino-5-methanesulfonylamino-4-oxo-pentanoic acid]",1830 µM,735 µM,–
"O=C(O)CC(NC(=O)OCc1ccccc1)C(=O)CNS(=O)(=O)c1cccc2ccccc12 (stereo not shown) [Example 2f, 3-Benzyloxycarbonylamino-5-(naphthalene-1-sulfonylamino)-4-oxo-pentanoic acid]",174 µM,22 µM,1010 µM
"O=C(O)CC(NC(=O)OCc1ccccc1)C(=O)CNS(=O)(=O)CCC1CCCCC1 (stereo not shown) [Example 2g, 3-Benzyloxycarbonylamino-5-(2-cyclohexyl-ethanesulfonylamino)-4-oxo-pentanoic acid]",136 µM,33 µM,314 µM
"O=C(O)CC(NC(=O)OCc1ccccc1)C(=O)CNS(=O)(=O)CCc1cccc2ccccc12 (stereo not shown) [Example 2h, 3-Benzyloxycarbonylamino-5-(2-naphthalen-1-yl-ethanesulfonylamino)-4-oxo-pentanoic acid]",55.6 µM,16 µM,199 µM
"CC1(C)C2CC[C@]1(CS(=O)(=O)NCC(=O)C(CC(=O)O)NC(=O)OCc1ccccc1)C(=O)C2 (stereo partly drawn) [Example 2i, 3-Benzyloxycarbonylamino-5-(7,7-dimethyl-2-oxo-bicyclo[2.2.1]hept-1-(R)-ylmethanesulfonylamino)-4-oxo-pentanoic acid]",25 µM,30.1 µM,59 µM
"O=C(O)CC(NC(=O)OCc1ccccc1)C(=O)CNS(=O)(=O)CC1CCc2ccccc21 (stereo not shown) [Example 2j, 3-Benzyloxycarbonylamino-5-(indan-1-ylmethanesulfonylamino)-4-oxo-pentanoic acid]",194 µM,65 µM,159 µM
"O=C(O)CC(NC(=O)OCc1ccccc1)C(=O)CNS(=O)(=O)CC1(F)c2ccccc2-c2ccccc21 (stereo not shown) [Example 2k, 3-Benzyloxycarbonylamino-5-(9-fluoro-9H-fluoren-9-ylmethanesulfonylamino)-4-oxo-pentanoic acid]",–,22 µM,–
"CC1(C)C2CCC1(CS(=O)(=O)NCC(=O)C(CC(=O)O)NC(=O)OCc1ccccc1)C(=O)C2 [Example 2l, 3-Benzyloxycarbonylamino-5-(7.7-dimethyl-2-oxo-bicyclo[2.2.1]hept-1-(S)-ylmethanesulfonylamino)-4-oxo-pentanoic acid]",28 µM,1.4 µM,935 µM
"CC1(C)C2CCC1(CS(=O)(=O)NCC(=O)[C@@H](CC(=O)O)NC(=O)OCc1ccccc1)CC2 [Example 2m, (R)-3-Benzyloxycarbonylamino-5-(7,7-dimethyl-bicyclo[2.2.1]hept-1-ylmethane-sulfonylamino)-4-oxo-pentanoic acid]",35.3 µM,2.8 µM,–
"CC(NC(=O)C(NC(=O)OCc1ccccc1)C(C)C)C(=O)NC(CC(=O)O)C(=O)CNS(=O)(=O)CCc1ccccc1 (stereo not shown) [Example 3a, 3-[2-(2-Benzyloxycarbonylamino-3-methyl-butyrylamino)-propionylamino]-4-oxo-5-(2-phenyl-ethanesulfonylamino)-pentanoic acid]",0.072 µM,0.007 µM,18 µM
"CC(C)C(NC(=O)C(CCC(=O)O)NC(=O)OCc1ccccc1)C(=O)NC(CC(=O)O)C(=O)CNS(=O)(=O)CCc1ccccc1 (stereo not shown) [Example 3b, 3-[2-(2-Benzyloxycarbonylamino-4-carboxy-butyrylamino)-3-methyl-butyrylamino]-4-oxo-5-(2-phenyl-ethanesulfonylamino)-pentanoic acid]",0.025 µM,0.013 µM,4.2 µM
"CC(C)C(NC(=O)C(CCC(=O)O)NC(=O)CCc1ccccc1)C(=O)NC(CC(=O)O)C(=O)CNS(=O)(=O)CCc1ccccc1 (stereo not shown) [Example 3c, 3-{2-[4-Carboxy-2-(3-phenyl-propionylamino)-butyrylamino]-3-methyl-butyrylamino}-4-oxo-5-(2-phenyl-ethanesulfonylamino)-pentanoic acid]",0.009 µM,0.0051 µM,3.4 µM
CC(=O)NC(Cc1ccc(O)cc1)C(=O)NC(CCC(=O)O)C(=O)NC(C(=O)NC(CC(=O)O)C(=O)CNS(=O)(=O)CCc1ccccc1)C(C)C (stereo not shown) [Example 3d],0.003 µM,0.0078 µM,0.9 µM

# Next, values leading:
IC50 [1],Ki [2],IC50 (Ich-2 (Caspase-4)),Compound
7.6 µM,0.27 µM,–,"CC(=O)NC(C(=O)NC(CC(=O)O)C(=O)CNS(=O)(=O)C[C@]12CCC(CC1=O)C2(C)C)C(C)C (stereo partly drawn) [Example 4a, 3-(2-Acetylamino-3-methyl-butyrylamino)-5-(7,7-dimethyl-2-oxo-bicyclo [2.2.1]hept-1-(S)-ylmethanesulfonylamino)-4-oxo-pentanoic acid]"
0.015 µM,0.001 µM,8.5 µM,"CC(NC(=O)C(NC(=O)OCc1ccccc1)C(C)C)C(=O)NC(CC(=O)O)C(=O)CNS(=O)(=O)CC12CCC(CC1=O)C2(C)C (stereo not shown) [Example 4c, 3-[2-(2-Benzyloxycarbonylamino-3-methyl-butyrylamino)-propionylamino]-5-(7,7-dimethyl-2-oxo-bicyclo[2.2.1]hept-1-ylmethanesulfonylamino)-4-oxo-pentanoic acid]"
0.003 µM,0.0016 µM,1.6 µM,CC(C)C(NC(=O)C(CCC(=O)O)NC(=O)CCc1ccccc1)C(=O)NC(CC(=O)O)C(=O)CNS(=O)(=O)CC12CCC(CC1=O)C2(C)C (stereo not shown) [Example 4d]
0.002 µM,0.00011 µM,0.7 µM,"CC(=O)NC(Cc1ccc(O)cc1)C(=O)NC(CCC(=O)O)C(=O)NC(C(=O)NC(CC(=O)O)C(=O)CNS(=O)(=O)CC12CCC(CC1=O)C2(C)C)C(C)C (stereo not shown) [Example 4e, 3-(2-{2-[2-Acetylamino-3-(4-hydroxy-phenyl)-propionylamino]-4-carboxy-butyrylamino}-3-methyl-butyrylamino)-5-(7,7-dimethyl-2-oxo-bicyclo[2.2.1]hept-1-ylmethanesulfonylamino)-4-oxo-pentanoic acid]"
586 µM,105 µM,–,"O=C(O)C[C@H](NC(=O)CN1CCc2ccccc2C1=O)C(=O)CNS(=O)(=O)c1ccccc1 [Example 5a, 3-(1,2,3,4,-Tetrahydro-1-oxo-isoquinoline-2-yl)acetamino-5-benzenesulfonyl amino-4-oxo-pentanoic acid]"
371 µM,45 µM,–,"O=C(O)C[C@H](NC(=O)CN1CCc2ccccc2C1=O)C(=O)CNS(=O)(=O)CCc1ccccc1 [Example 5c, (S)-4-Oxo-3-[2-(1-oxo-3,4-dihydro-1H-isoquinolin-2-yl)-acetylamino]-5-(2-phenyl-ethanesulfonylamino)-pentanoic acid]"
234 µM,27 µM,–,"O=C(O)CC(NC(=O)CN1CCc2ccccc2C1=O)C(=O)CNS(=O)(=O)Cc1ccccc1 (stereo not shown) [Example 5d, 4-Oxo-3-[2-(1-oxo-3,4-dihydro-1H-isoquinolin-2-yl)-acetylamino]-5-phenylmethanesulfonylamino-pentanoic acid]"
